Structures can show the parent of a compound that is named as a salt.

The series in a line: Accumulative release from porous silicon samples immersed in PBS buffer, measured by UV spectroscopic technique. Type of series: physicochemical. The conditions noted are these: PBS buffer at 37 C; for rate of release when the porous silicon wafer has been coated with cocoa butter, relative to the uncoated state: Method A, cocoa butter layer approx. 1 mm, FIG. 1. How it is done: A number of experiments were performed to show the effect of an excipient upon the release of a beneficial substance from the pores of porous silicon. Three substances were tested: chlorambucil, amitriptyline hydrochloride, neutral red. The excipient employed was cocoa butter. Three methods of combining the porous silicon, excipient, and beneficial substance, were carried out.
Method A comprises the steps of: (a) dissolving the beneficial substance in ethanol; (b) introducing the ethanolic solution of the beneficial substance to the surface of the porous silicon wafer and allowing it to pass into the pores; (c) applying heat to the porous silicon wafer by means of a hot plate to drive off the ethanol, (d) removing the excess beneficial substance, that has not entered the pores, by washing with ethanol; (e) dropping melted cocoa butter oil onto the porous side of the wafer, which has been loaded with a beneficial substance; and (f) allowing the wafer to cool at an ambient temperature of 20 C for approximately one hour, the cocoa butter forming a layer, approximately 1 mm in depth, that coats the surface of the porous silicon.
Method B comprises the steps: (a) dissolving the beneficial substance and excipient in ethanol; (b) introducing the ethanolic solution of the beneficial substance and excipient to the surface of the porous silicon wafer and allowing it to pass into the pores; (c) applying heat to the porous silicon wafer by means of a hot plate thereby driving off the ethanol, and (d) removing the excess beneficial substance and excipient, that have not entered the pores, by washing with ethanol. The porosified wafer, utilized for methods A and B, comprised mesoporous silicon having a porosity of 74%.
Method C comprises the steps: (a) fabricating particles of porous silicon by milling one or more porous silicon membranes; (b) combining the silicon particles with an ethanolic solution of the beneficial substance in a flask; (c) removing the ethanol by rotary evaporation; (d) mixing the beneficial substance loaded particles with excipient, (e) introducing the mixture to a cylindrical die, and (f) applying a uniaxial pressure of 0.5 ton to form a pellet. The porous silicon membrane, utilized for method C, comprises mesoporous silicon having a porosity of: 77%.
Samples of porous silicon that have been combined with beneficial substance and excipient by methods A, B, and C were then immersed in PBS buffer at 37 C, and the accumulative release was measured by means of a UV spectroscopic technique.
The uncoated samples, the results for which are shown in FIG. 1, were prepared, with the steps (a) to (d) of method A.

The mark [1] stands for this setting: mesoporous silicon wafer, porosity 74%.

Take `O=C(O)CCCc1ccc(N(CCCl)CCCl)cc1` [chlorambucil]: the “rate of release when the porous silicon wafer has been coated with cocoa butter, relative to the uncoated state” value under setting [1] is “increases”. Further, under “Method B, mesoporous silicon wafer, porosity 74%, FIG. 2”, the “rate of release for porous silicon loaded with beneficial substance alone, compared with solution loading with cocoa butter” value is recorded as “faster than when the excipient is present”. Besides, the “rate of release from pellet, excipient free sample versus pellet with equal mass of cocoa butter and porous silicon, during the first seven hours” value (Method C, compressed pellet, mesoporous silicon porosity 77%, FIG. 3) was “higher, from the excipient free sample”. Besides, the “rate of release from the excipient containing pellet beyond seven hours” value (Method C, pellet with equal mass of cocoa butter and porous silicon, FIG. 3) was “accelerates until it is higher than that of the excipient free sample”.
With `CN(C)CCC=C1c2ccccc2CCc2ccccc21` [amitriptyline hydrochloride], the “rate of release when the porous silicon wafer has been coated with cocoa butter, relative to the uncoated state” value under setting [1] is “slower”.

Values taken from patent US20090137688A1, “PHARMACEUTICAL PRODUCT” (priority 2005, published 2009).
